# Results from patent US11566028B2, “Bicyclic heterocycles as FGFR inhibitors” (Incyte Corporation, priority 2019, dated 2023).
# Where two headings read alike, the source gives them in different places.
# Experiments:
# Assay type in all cases: biochemical
# [1] = biological target: wild-type un-phosphorylated FGFR3 protein (Homo sapiens (Human), UniProt P22607); experiment: FGFR Enzymatic Assay (FRET peptide phosphorylation), FGFR3; details: pre-incubated for 4 hours
# FGFR1 = FGFR1 (Homo sapiens (Human), UniProt P11362); experiment: FGFR Enzymatic Assay (FRET peptide phosphorylation), FGFR1; details: pre-incubated for 4 hours
# Sequence of FGFR1 (P11362 22-822): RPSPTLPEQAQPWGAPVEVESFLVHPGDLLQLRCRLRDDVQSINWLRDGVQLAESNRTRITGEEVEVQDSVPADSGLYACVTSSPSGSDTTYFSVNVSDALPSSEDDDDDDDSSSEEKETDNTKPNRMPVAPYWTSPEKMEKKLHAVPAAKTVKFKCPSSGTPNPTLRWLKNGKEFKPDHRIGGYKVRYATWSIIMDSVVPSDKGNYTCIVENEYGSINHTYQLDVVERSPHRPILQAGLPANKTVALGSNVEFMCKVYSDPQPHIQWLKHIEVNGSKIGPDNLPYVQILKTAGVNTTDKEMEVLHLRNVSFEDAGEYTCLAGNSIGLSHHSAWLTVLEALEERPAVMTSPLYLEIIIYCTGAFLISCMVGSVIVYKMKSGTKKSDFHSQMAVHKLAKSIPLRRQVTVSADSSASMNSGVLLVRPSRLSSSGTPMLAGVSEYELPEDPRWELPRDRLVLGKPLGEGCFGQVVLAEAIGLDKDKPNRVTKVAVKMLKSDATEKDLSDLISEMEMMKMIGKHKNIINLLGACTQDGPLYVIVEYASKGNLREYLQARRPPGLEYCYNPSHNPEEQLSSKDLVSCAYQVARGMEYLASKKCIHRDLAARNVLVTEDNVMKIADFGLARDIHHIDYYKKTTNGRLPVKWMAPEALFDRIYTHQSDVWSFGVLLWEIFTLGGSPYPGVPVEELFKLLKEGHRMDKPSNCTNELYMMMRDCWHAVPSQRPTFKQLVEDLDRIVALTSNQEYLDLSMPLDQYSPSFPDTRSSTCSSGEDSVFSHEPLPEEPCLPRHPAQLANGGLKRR
# FGFR2 = FGFR2 (Homo sapiens (Human), UniProt P21802); experiment: FGFR Enzymatic Assay (FRET peptide phosphorylation), FGFR2
# Sequence of FGFR2 (P21802 22-821): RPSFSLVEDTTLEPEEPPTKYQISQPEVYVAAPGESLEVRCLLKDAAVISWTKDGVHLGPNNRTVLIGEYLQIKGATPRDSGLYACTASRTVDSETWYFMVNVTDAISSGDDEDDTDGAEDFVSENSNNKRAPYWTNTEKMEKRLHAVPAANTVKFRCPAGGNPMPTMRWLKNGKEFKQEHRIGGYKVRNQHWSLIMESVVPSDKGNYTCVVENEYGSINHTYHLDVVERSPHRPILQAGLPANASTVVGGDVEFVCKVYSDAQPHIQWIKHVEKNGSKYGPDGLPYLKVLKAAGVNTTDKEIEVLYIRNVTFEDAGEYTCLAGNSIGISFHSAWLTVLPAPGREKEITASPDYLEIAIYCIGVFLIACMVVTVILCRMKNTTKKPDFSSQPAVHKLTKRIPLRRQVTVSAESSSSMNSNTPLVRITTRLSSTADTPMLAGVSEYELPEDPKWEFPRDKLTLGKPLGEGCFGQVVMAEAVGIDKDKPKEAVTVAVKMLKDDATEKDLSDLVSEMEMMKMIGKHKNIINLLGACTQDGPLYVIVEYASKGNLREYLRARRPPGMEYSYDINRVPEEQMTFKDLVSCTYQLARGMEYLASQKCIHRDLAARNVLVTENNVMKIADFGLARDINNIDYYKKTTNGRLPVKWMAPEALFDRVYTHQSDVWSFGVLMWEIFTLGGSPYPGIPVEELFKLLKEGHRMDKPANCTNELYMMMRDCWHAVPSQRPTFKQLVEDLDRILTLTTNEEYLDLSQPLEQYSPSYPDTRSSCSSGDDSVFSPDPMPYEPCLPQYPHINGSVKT
# FGFR4 = FGFR4 (Homo sapiens (Human), UniProt P22455); experiment: FGFR Enzymatic Assay (FRET peptide phosphorylation), FGFR4
# Sequence of FGFR4 (P22455 22-802): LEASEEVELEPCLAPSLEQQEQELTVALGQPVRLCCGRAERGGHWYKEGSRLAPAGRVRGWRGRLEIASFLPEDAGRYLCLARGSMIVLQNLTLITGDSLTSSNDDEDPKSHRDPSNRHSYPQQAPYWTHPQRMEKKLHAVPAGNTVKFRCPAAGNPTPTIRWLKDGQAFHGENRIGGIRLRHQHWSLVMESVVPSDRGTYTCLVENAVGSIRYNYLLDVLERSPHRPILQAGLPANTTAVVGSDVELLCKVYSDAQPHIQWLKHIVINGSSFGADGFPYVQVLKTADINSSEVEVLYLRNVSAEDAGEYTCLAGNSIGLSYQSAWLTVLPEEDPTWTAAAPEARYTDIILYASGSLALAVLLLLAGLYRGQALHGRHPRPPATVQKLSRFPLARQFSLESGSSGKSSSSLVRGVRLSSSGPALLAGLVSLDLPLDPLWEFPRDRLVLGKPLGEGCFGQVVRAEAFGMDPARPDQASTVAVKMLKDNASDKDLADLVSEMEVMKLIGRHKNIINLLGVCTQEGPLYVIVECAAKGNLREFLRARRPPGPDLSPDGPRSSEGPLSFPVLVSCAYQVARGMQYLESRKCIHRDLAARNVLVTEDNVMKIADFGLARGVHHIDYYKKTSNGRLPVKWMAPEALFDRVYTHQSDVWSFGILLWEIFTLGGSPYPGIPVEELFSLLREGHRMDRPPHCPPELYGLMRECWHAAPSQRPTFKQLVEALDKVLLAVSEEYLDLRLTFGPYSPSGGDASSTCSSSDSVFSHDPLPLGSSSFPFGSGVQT
# Sequence of wild-type un-phosphorylated FGFR3 protein (P22607 23-806): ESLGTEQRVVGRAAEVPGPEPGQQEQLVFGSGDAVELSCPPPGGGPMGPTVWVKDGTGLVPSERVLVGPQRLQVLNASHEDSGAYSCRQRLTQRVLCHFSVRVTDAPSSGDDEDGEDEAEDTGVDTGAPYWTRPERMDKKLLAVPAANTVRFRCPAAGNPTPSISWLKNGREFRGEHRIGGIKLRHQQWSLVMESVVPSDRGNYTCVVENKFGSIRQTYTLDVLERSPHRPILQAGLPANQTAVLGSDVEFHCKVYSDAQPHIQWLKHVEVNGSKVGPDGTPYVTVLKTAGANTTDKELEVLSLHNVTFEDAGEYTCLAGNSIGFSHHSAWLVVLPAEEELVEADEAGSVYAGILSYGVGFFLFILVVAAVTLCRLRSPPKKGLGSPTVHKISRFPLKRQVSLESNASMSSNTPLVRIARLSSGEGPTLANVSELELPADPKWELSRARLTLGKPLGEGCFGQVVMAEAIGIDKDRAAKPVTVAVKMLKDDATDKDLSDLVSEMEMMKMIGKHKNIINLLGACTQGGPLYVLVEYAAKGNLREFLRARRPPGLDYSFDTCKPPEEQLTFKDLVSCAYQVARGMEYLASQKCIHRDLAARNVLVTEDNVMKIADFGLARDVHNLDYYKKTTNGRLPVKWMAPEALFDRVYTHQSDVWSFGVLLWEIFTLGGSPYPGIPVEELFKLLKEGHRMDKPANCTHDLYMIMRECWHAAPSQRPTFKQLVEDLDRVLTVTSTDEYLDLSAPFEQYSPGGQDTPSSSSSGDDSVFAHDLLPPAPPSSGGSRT
IC50 [1],IC50 (FGFR1),IC50 (FGFR2; pre-incubated for 4 hours),IC50 (FGFR4; pre-incubated for 4 hours),Structure (SMILES),IC50 (FGFR2),IC50 (FGFR4)
< 0.01 µM,0.03 to 0.2 µM,< 0.01 µM,0.03 to 0.2 µM,"CNC(=O)c1cc(C)c(F)c(-c2cnn3cc(-c4cnn(C)c4)c(OC4CCOC4)nc23)c1 (racemic) [Example 4, 4-Fluoro-N,3-dimethyl-5-(6-(1-methyl-1H-pyrazol-4-yl)-5-((tetrahydrofuran-3-yl)oxy)pyrazolo[1,5-a]pyrimidin-3-yl)benzamide]",–,–
< 0.01 µM,< 0.01 µM,< 0.01 µM,0.01 to 0.03 µM,"CNC(=O)c1cncc(-c2cnn3cc(-c4ccn(C)n4)c(N[C@H]4CCOC4)nc23)c1 [Example 59, (S)—N-Methyl-5-(6-(1-methyl-1H-pyrazol-3-yl)-5-((tetrahydrofuran-3-yl)amino)pyrazolo[1,5-a]pyrimidin-3-yl)nicotinamide]",–,–
< 0.01 µM,0.03 to 0.2 µM,< 0.01 µM,0.03 to 0.2 µM,"CCNC(=O)c1cncc(-c2cnn3cc(-c4ccn(C)n4)c(N[C@H]4CCOC4)nc23)c1 [Example 61, (S)—N-Ethyl-5-(6-(1-methyl-1H-pyrazol-3-yl)-5-((tetrahydrofuran-3-yl)amino)pyrazolo[1,5-a]pyrimidin-3-yl)nicotinamide]",–,–
< 0.01 µM,0.01 to 0.03 µM,< 0.01 µM,0.03 to 0.2 µM,"Cn1cc(-c2cn3ncc(-c4cccc5[nH]ncc45)c3nc2O[C@H]2CCOC2)cn1 [Example 33, (S)-3-(1H-Indazol-4-yl)-6-(1-methyl-1H-pyrazol-4-yl)-5-((tetrahydrofuran-3-yl)oxy)pyrazolo[1,5-a]pyrimidine]",–,–
< 0.01 µM,0.01 to 0.03 µM,< 0.01 µM,≥ 0.2 µM,"CNC(=O)c1cc(C)c(F)c(-c2cnn3cc(-c4cnn(C5CN(C)C5)c4)c(N[C@H]4CCOC4)nc23)c1 [Example 35, (S)-4-Fluoro-N,3-dimethyl-5-(6-(1-(1-methylazetidin-3-yl)-1H-pyrazol-4-yl)-5-((tetrahydrofuran-3-yl)amino)pyrazolo[1,5-a]pyrimidin-3-yl)benzamide]",–,–
< 0.01 µM,0.01 to 0.03 µM,< 0.01 µM,0.03 to 0.2 µM,"CNC(=O)c1cc(C)c(F)c(-c2cnn3cc(-c4cnn(C5CCN(C)CC5)c4)c(N[C@H]4CCOC4)nc23)c1 [Example 34, (S)-4-Fluoro-N,3-dimethyl-5-(6-(1-(1-methylpiperidin-4-yl)-1H-pyrazol-4-yl)-5-((tetrahydrofuran-3-yl)amino)pyrazolo[1,5-a]pyrimidin-3-yl)benzamide]",–,–
< 0.01 µM,0.03 to 0.2 µM,< 0.01 µM,0.03 to 0.2 µM,"[2H]C([2H])([2H])NC(=O)c1cc(-c2cnn3cc(-c4ccc(CN5C[C@H]6C[C@@H]5CO6)nc4)c(O[C@H]4CCOC4)nc23)c(F)c(C(F)F)c1 [Example 66, 3-(6-(6-(((1R,4R)-2-Oxa-5-azabicyclo[2.2.1]heptan-5-yl)methyl)pyridin-3-yl)-5-(((S)-tetrahydrofuran-3-yl)oxy)pyrazolo[1,5-a]pyrimidin-3-yl)-5-(difluoromethyl)-4-fluoro-N-(methyl-d3)benzamide]",–,–
< 0.01 µM,< 0.01 µM,< 0.01 µM,0.01 to 0.03 µM,"[2H]C([2H])([2H])NC(=O)c1cc(C)c(F)c(-c2cnn3cc(-c4cnn([C@@H]5CCN(C)C[C@H]5F)c4)c(O[C@H]4CCOC4)nc23)c1 [Example 64, 4-Fluoro-3-(6-(1-((3R,4R)-3-fluoro-1-methylpiperidin-4-yl)-1H-pyrazol-4-yl)-5-(((S)-tetrahydrofuran-3-yl)oxy)pyrazolo[1,5-a]pyrimidin-3-yl)-5-methyl-N-(methyl-d3)benzamide]",–,–
< 0.01 µM,0.01 to 0.03 µM,< 0.01 µM,0.03 to 0.2 µM,"CNC(=O)c1cc(C)c(F)c(-c2cnn3cc(-c4cnn([C@@H]5CCN(C)C[C@H]5F)c4)c(N[C@H]4CCOC4)nc23)c1 [Example 65, 4-Fluoro-3-(6-(1-((3R,4R)-3-fluoro-1-methylpiperidin-4-yl)-1H-pyrazol-4-yl)-5-(((S)-tetrahydrofuran-3-yl)amino)pyrazolo[1,5-a]pyrimidin-3-yl)-N,5-dimethylbenzamide]",–,–

# Further lines, the compound ahead of its results:
Structure (SMILES),IC50 [1],IC50 (FGFR1),IC50 (FGFR2; pre-incubated for 4 hours),IC50 (FGFR4; pre-incubated for 4 hours),IC50 (FGFR2),IC50 (FGFR4)
"CCn1ccc(-c2cn3ncc(-c4cc(C(=O)NC)cc(C)c4F)c3nc2N[C@H]2CCOC2)n1 [Example 43, (S)-3-(6-(1-Ethy1-1H-pyrazol-3-y1)-5-((tetrahydrofuran-3-yl)amino)pyrazolo[1,5-a]pyrimidin-3-y1)-4-fluoro-N,5-dimethylbenzamide]",< 0.01 µM,0.01 to 0.03 µM,–,–,< 0.01 µM,0.03 to 0.2 µM
"CNC(=O)c1cc(C)c(F)c(-c2cnn3cc(-c4cnc(C)o4)c(N[C@H]4CCOC4)nc23)c1 [Example 42, (S)-4-Fluoro-N,3-dimethyl-5-(6-(2-methyloxazol-5-y1)-5-((tetrahydrofuran-3-yl)amino)pyrazolo[1,5-a]pyrimidin-3-yl)benzamide]",< 0.01 µM,0.01 to 0.03 µM,–,–,< 0.01 µM,0.03 to 0.2 µM
"CNC(=O)c1cc(C)c(F)c(-c2cnn3cc(-c4cnn(CC(C)(C)O)c4)c(N[C@H]4CCOC4)nc23)c1 [Example 40, (S)-4-Fluoro-3-(6-(1-(2-hydroxy-2-methylpropy1)-1H-pyrazol-4-y1)-5-((tetrahydrofuran-3-yl)amino)pyrazolo[1,5-a]pyrimidin-3-y1)-N,5-dimethylbenzamide]",< 0.01 µM,0.01 to 0.03 µM,–,–,< 0.01 µM,0.03 to 0.2 µM
"CNC(=O)c1cc(F)c(F)c(-c2cnn3cc(-c4cnc(C)o4)c(N[C@H]4CCOC4)nc23)c1 [Example 58, (S)-3,4-Difluoro-N-methyl-5-(6-(2-methyloxazol-5-y1)-5-((tetrahydrofuran-3-yl)amino)pyrazolo[1,5-a]pyrimidin-3-yl)benzamide]",< 0.01 µM,< 0.01 µM,–,–,< 0.01 µM,0.03 to 0.2 µM
"CNC(=O)c1cc(C)c(F)c(-c2cnn3cc(-c4cnn(C5CCOC5)c4)c(N[C@H]4CCOC4)nc23)c1 (stereo partly drawn) [Example 41, 4-Fluoro-N,3-dimethyl-5-(6-(1-(tetrahydrofuran-3-yl)-1H-pyrazol-4-y1)-5-(((S)-tetrahydrofuran-3-yl)amino)pyrazolo[1,5-a]pyrimidin-3-yl)benzamide]",< 0.01 µM,0.03 to 0.2 µM,–,–,< 0.01 µM,0.03 to 0.2 µM
"CCn1cc(-c2cn3ncc(-c4cc(C(=O)NC)cc(F)c4F)c3nc2N[C@H]2CCOC2)cn1 [Example 53, (S)-3-(6-(1-Ethy1-1H-pyrazol-4-y1)-5-((tetrahydrofuran-3-yl)amino)pyrazolo[1,5-a]pyrimidin-3-y1)-4,5-difluoro-N-methylbenzamide]",< 0.01 µM,0.01 to 0.03 µM,–,–,< 0.01 µM,> 0.2 µM
"CNC(=O)c1cc(F)c(F)c(-c2cnn3cc(-c4cnn(CCN5CCOCC5)c4)c(N[C@H]4CCOC4)nc23)c1 [Example 55, (S)-3,4-Difluoro-N-methy1-5-(6-(1-(2-morpholinoethyl)-1H-pyrazol-4-y1)-5-((tetrahydrofuran-3-yl)amino)pyrazolo[1,5-a]pyrimidin-3-yl)benzamide]",< 0.01 µM,< 0.01 µM,–,–,< 0.01 µM,0.03 to 0.2 µM
